The numbers were not newly measured in patent US20110165115A1, “SYNERGISTIC ATTRACTANTS FOR PESTIFEROUS SOCIAL INSECTS” (STERLING INTERNATIONAL INC., priority 2010, published 2011), which cites them from elsewhere.

This series concerns V. vidua. Particulars: background; cited from earlier work.

Each structure is given as a SMILES string.

`CCCCC/C=C\C=C\C(=O)OCC` [ethyl (E,Z)-2,4-decadienoate]: the attraction result is on record as “attracted”.
